Data as given in patent US4593093A, “Acyl derivatives” (priority 1980, dated 1986).
Structures can show the parent of a compound that is named as a salt. Where two headings read alike, the source gives them in different places.

Assays:
Streptococcus faecalis = assay: Activity in vitro: minimum inhibitory concentration; type: cell-based; details: Enterococcus faecalis
Proteus rettgeri = assay: as above; type: cell-based; details: Providencia rettgeri
Pseudomonas aeruginosa [1] = assay: Activity in vivo: survival of intraperitoneally infected mice; details: sc, 96 h; mice infected i.p. with Pseudomonas aeruginosa; s.c. three times, 1 h, 3 h and 5 h after infection; survival on 4th day; read-out: CD50 (dosage at which 50% of the animals survive)
Procedure: (§1) Groups of 5 mice are infected intraperitoneally with an aqueous suspension of various pathogens. The test substance in physiological sodium chloride solution is administered subcutaneously twice, i.e. 1 hour and 3 hours after the infection. The number of surviving animals is determined on the 4th day. Various dosages are administered and that dosage at which 50% of the experimental animals survive (CD50, mg/kg) is determined by interpolation.
*Administered subcutaneously three times: 1 hour, 3 hours and 5 hours

Proteus inconstans = assay: Activity in vitro: minimum inhibitory concentration; type: cell-based; details: Providencia alcalifaciens
Enterobacter cloacae [2] = assay: as above; type: cell-based
Staphylococcus epidermis = assay: as above; type: cell-based
Pseudomonas aeruginosa [3] = assay: as above; type: cell-based
Klebsiella pseumoniae = assay: as above; type: cell-based
Citrobacter freundii = assay: as above; type: cell-based
Streptococcus pneumoniae = assay: as above; type: cell-based
Escherichia coli [4] = assay: as above; type: cell-based
Proteus morganii = assay: as above; type: cell-based; details: Morganella morganii
Streptococcus viridans = assay: as above; type: cell-based
Enterobacter aerogenes = assay: as above; type: cell-based; details: Klebsiella aerogenes
Streptococcus pyogenes [5] = assay: as above; type: cell-based
Proteus mirabilis = assay: as above; type: cell-based
Toxicity, LD50 = details: in vivo
Neisseria moningitidis = assay: Activity in vivo: survival of intraperitoneally infected mice; details: sc, 96 h; mice infected i.p. with Neisseria moningitidis; s.c. twice, 1 h and 4 h after infection; survival on 4th day; read-out: CD50 (dosage at which 50% of the animals survive)
Procedure: as §1
**Administered subcutaneously twice: 1 hour and 4 hours after the […]

Serratia marcescens [6] = assay: Activity in vitro: minimum inhibitory concentration; type: cell-based
Staphylococcus aureus = assay: as above; type: cell-based
Haemophilus influenzae = assay: Activity in vivo: survival of intraperitoneally infected mice; details: sc, 96 h; mice infected i.p. with Haemophilus influenzae; s.c. twice, 1 h and 3 h after infection; survival on 4th day; read-out: CD50 (dosage at which 50% of the animals survive)
Procedure: as §1

Escherichia coli [7] = assay: as above; details: sc, 96 h; mice infected i.p. with Escherichia coli; s.c. twice, 1 h and 3 h after infection; survival on 4th day; read-out: CD50 (dosage at which 50% of the animals survive)
Procedure: as §1

Enterobacter cloacae [8] = assay: as above; details: sc, 96 h; mice infected i.p. with Enterobacter cloacae; s.c. twice, 1 h and 3 h after infection; survival on 4th day; read-out: CD50 (dosage at which 50% of the animals survive)
Procedure: as §1

Streptococcus pyogenes [9] = assay: as above; details: sc, 96 h; mice infected i.p. with Streptococcus pyogenes; s.c. twice, 1 h and 3 h after infection; survival on 4th day; read-out: CD50 (dosage at which 50% of the animals survive)
Procedure: as §1

Serratia marcescens [10] = assay: as above; details: sc, 96 h, mice infected i.p. with Serratia marcescens strain 1, s.c. twice, 1 h and 3 h after infection, survival on 4th day, read-out: CD50 (dosage at which 50% of the animals survive)
Procedure: as §1

Proteus vulgaris = assay: Activity in vitro: minimum inhibitory concentration; type: cell-based
[11] = Streptococcus faecalis strain 1
[12] = Streptococcus faecalis strain 2
[13] = Pseudomonas aeruginosa strain 1
[14] = Pseudomonas aeruginosa strain 2
[15] = Pseudomonas aeruginosa strain 3
[16] = Enterobacter aerogenes strain 1
[17] = Enterobacter aerogenes strain 2
[18] = Streptococcus pyogenes strain 1, read-out: Minimum inhibitory concentration
[19] = Streptococcus pyogenes strain 2, read-out: Minimum inhibitory concentration

## CO/N=C(\C(=O)N[C@@H]1C(=O)N2C(C(=O)O)=C(CSc3nc(=O)c(O)nn3C)C[S+]([O-])[C@H]12)c1c[se]c(N)n1 (stereo partly drawn) [Product E, (6R, 7R)-7-[2-(2-amino-4-selenazolyl)-2-[(Z)-methoxyimino]-acetamido]-3-[[(2,5-dihydro-6-hydroxy-2-methyl-5-oxo-as-triazin-3-yl)-thio]methyl]-8-oxo-5-thia-1-azabicyclo[4.2.0]oct-2-ene-2-carboxylic acid 5-oxide disodium salt]
Streptococcus faecalis; [11]
  MIC: > 12 µg/mL
Streptococcus faecalis; [12]
  MIC: > 12 µg/mL
Proteus rettgeri
  MIC: 0.05 µg/mL
Pseudomonas aeruginosa [1]
  ED50: 75 mg/kg
Proteus inconstans
  MIC: 0.025 µg/mL
Enterobacter cloacae [2]; Enterobacter cloacae strain 1
  MIC: 1.6 µg/mL
Enterobacter cloacae [2]; Enterobacter cloacae strain 2
  MIC: 0.2 µg/mL
Enterobacter cloacae [2]; Enterobacter cloacae strain 3
  MIC: 1.6 µg/mL
Staphylococcus epidermis
  MIC: > 12 µg/mL
Pseudomonas aeruginosa [3]; [13]
  MIC: 100 µg/mL
Pseudomonas aeruginosa [3]; [14]
  MIC: 100 µg/mL
Pseudomonas aeruginosa [3]; [15]
  MIC: 50 µg/mL
Klebsiella pseumoniae; Klebsiella pseumoniae strain 1
  MIC: 0.1 µg/mL
Klebsiella pseumoniae; Klebsiella pseumoniae strain 2
  MIC: 0.05 µg/mL
Klebsiella pseumoniae; Klebsiella pseumoniae strain 3
  MIC: 0.1 µg/mL
Citrobacter freundii; Citrobacter freundii strain 1
  MIC: 0.1 µg/mL
Citrobacter freundii; Citrobacter freundii strain 2
  MIC: 0.1 µg/mL
Streptococcus pneumoniae
  MIC: 3.1 µg/mL
Escherichia coli [4]; Escherichia coli strain 1
  MIC: 0.1 µg/mL
Escherichia coli [4]; Escherichia coli strain 2
  MIC: 0.025 µg/mL
Escherichia coli [4]; Escherichia coli strain 3
  MIC: 0.8 µg/mL
Escherichia coli [4]; Escherichia coli strain 4
  MIC: 0.05 µg/mL
Escherichia coli [4]; Escherichia coli strain 5
  MIC: 0.4 µg/mL
Proteus morganii
  MIC: 0.1 µg/mL
Streptococcus viridans
  MIC: > 12 µg/mL
Enterobacter aerogenes; [16]
  MIC: 0.1 µg/mL
Enterobacter aerogenes; [17]
  MIC: 0.05 µg/mL
Streptococcus pyogenes [5]; [18]
  MIC: 3.1 µg/mL
Streptococcus pyogenes [5]; [19]
  MIC: 0.2 µg/mL
Proteus mirabilis; Proteus mirabilis strain 3
  MIC: 0.05 µg/mL
Proteus mirabilis; Proteus mirabilis strain 4
  MIC: 0.4 µg/mL
Proteus mirabilis; Proteus mirabilis strain 5
  MIC: 0.1 µg/mL
Toxicity, LD50; po
  LD50: > 5000 mg/kg
Toxicity, LD50; sc
  LD50: > 4000 mg/kg
Neisseria moningitidis
  ED50: < 0.1 mg/kg
Serratia marcescens [6]; Serratia marcescens strain 1
  MIC: 0.8 µg/mL
Serratia marcescens [6]; Serratia marcescens strain 2
  MIC: 0.8 µg/mL
Serratia marcescens [6]; Serratia marcescens strain 3
  MIC: 0.2 µg/mL
Staphylococcus aureus; Staphylococcus aureus strain 1
  MIC: > 12 µg/mL
Staphylococcus aureus; Staphylococcus aureus strain 2
  MIC: > 12 µg/mL
Staphylococcus aureus; Staphylococcus aureus strain 3
  MIC: > 12 µg/mL
Staphylococcus aureus; Staphylococcus aureus strain 4
  MIC: > 12 µg/mL
Haemophilus influenzae
  ED50: 1.8 mg/kg
Escherichia coli [7]
  ED50: 0.017 mg/kg
Enterobacter cloacae [8]
  ED50: 0.06 mg/kg
Streptococcus pyogenes [9]
  ED50: 0.13 mg/kg
Serratia marcescens [10]
  ED50: 0.03 mg/kg

## CO/N=C(\C(=O)N[C@@H]1C(=O)N2C(C(=O)[O-])=C(CSc3nnnn3C)CS[C@H]12)c1c[se]c(N)n1.[Na+] [Product A, (6R, 7R)-7-[2-(2-amino-4-selenazolyl)-2-[(Z)-methoxyimino]-acetamido]-3-[[(1-methyl-1H-tetrazol-5-yl)-thio]methyl]-8-oxo-5-thia-1-azabicyclo[4.2.0]oct-2-ene-2-carboxylic acid sodium salt]
Streptococcus faecalis; [11]
  MIC: 100 µg/mL
Streptococcus faecalis; [12]
  MIC: > 100 µg/mL
Proteus rettgeri
  MIC: 0.2 µg/mL
Pseudomonas aeruginosa [1]
  ED50: 39 mg/kg
Proteus inconstans
  MIC: 0.025 µg/mL
Enterobacter cloacae [2]; Enterobacter cloacae strain 1
  MIC: > 100 µg/mL
Enterobacter cloacae [2]; Enterobacter cloacae strain 2
  MIC: 0.8 µg/mL
Enterobacter cloacae [2]; Enterobacter cloacae strain 3
  MIC: 50 µg/mL
Staphylococcus epidermis
  MIC: 0.8 µg/mL
Pseudomonas aeruginosa [3]; [13]
  MIC: 25 µg/mL
Pseudomonas aeruginosa [3]; [14]
  MIC: 25 µg/mL
Pseudomonas aeruginosa [3]; [15]
  MIC: 6.3 µg/mL
Klebsiella pseumoniae; Klebsiella pseumoniae strain 1
  MIC: 0.2 µg/mL
Klebsiella pseumoniae; Klebsiella pseumoniae strain 2
  MIC: 0.05 µg/mL
Klebsiella pseumoniae; Klebsiella pseumoniae strain 3
  MIC: 0.1 µg/mL
Citrobacter freundii; Citrobacter freundii strain 1
  MIC: 1.6 µg/mL
Citrobacter freundii; Citrobacter freundii strain 2
  MIC: 0.05 µg/mL
Streptococcus pneumoniae
  MIC: 0.025 µg/mL
Escherichia coli [4]; Escherichia coli strain 1
  MIC: 0.1 µg/mL
Escherichia coli [4]; Escherichia coli strain 2
  MIC: 0.025 µg/mL
Escherichia coli [4]; Escherichia coli strain 3
  MIC: 0.4 µg/mL
Escherichia coli [4]; Escherichia coli strain 4
  MIC: 0.2 µg/mL
Escherichia coli [4]; Escherichia coli strain 5
  MIC: 0.4 µg/mL
Proteus morganii
  MIC: 0.1 µg/mL
Streptococcus viridans
  MIC: 0.8 µg/mL
Proteus vulgaris
  MIC: 0.78 µg/mL
Enterobacter aerogenes; [16]
  MIC: 0.1 µg/mL
Enterobacter aerogenes; [17]
  MIC: 0.1 µg/mL
Streptococcus pyogenes [5]; [18]
  MIC: 0.025 µg/mL
Streptococcus pyogenes [5]; [19]
  MIC: ≤ 0.012 µg/mL
Proteus mirabilis; Proteus mirabilis strain 1
  MIC: 0.1 µg/mL
Proteus mirabilis; Proteus mirabilis strain 2
  MIC: 0.1 µg/mL
Proteus mirabilis; Proteus mirabilis strain 3
  MIC: 0.8 µg/mL
Proteus mirabilis; Proteus mirabilis strain 4
  MIC: 0.05 µg/mL
Proteus mirabilis; Proteus mirabilis strain 5
  MIC: 0.05 µg/mL
Toxicity, LD50; po
  LD50: > 5000 mg/kg
Toxicity, LD50; sc
  LD50: > 4000 mg/kg
Serratia marcescens [6]; Serratia marcescens strain 1
  MIC: 0.4 µg/mL
Serratia marcescens [6]; Serratia marcescens strain 2
  MIC: 0.8 µg/mL
Serratia marcescens [6]; Serratia marcescens strain 3
  MIC: 0.1 µg/mL
Staphylococcus aureus; Staphylococcus aureus strain 1
  MIC: 0.8 µg/mL
Staphylococcus aureus; Staphylococcus aureus strain 2
  MIC: 1.6 µg/mL
Staphylococcus aureus; Staphylococcus aureus strain 3
  MIC: 0.8 µg/mL
Staphylococcus aureus; Staphylococcus aureus strain 4
  MIC: 0.8 µg/mL
Haemophilus influenzae
  ED50: 1.5 mg/kg
Escherichia coli [7]
  ED50: 0.006 mg/kg
Enterobacter cloacae [8]
  ED50: 8.4 mg/kg
Streptococcus pyogenes [9]
  ED50: 0.05 mg/kg
Serratia marcescens [10]
  ED50: 0.13 mg/kg
